Like-named read-outs stand apart in the source and are kept apart here.
Legend:
[1] = Central brain availability: compound levels in plasma and brain; format: in vivo; conditions: mouse, dose 30 mg/kg oral dosing
Description: (§1) A typical protocol for measuring Aβ42 lowering in vivo is shown but it is only one of many variations that could be used to optimize the levels of detectable Aβ. For example, Aβ42 lowering compounds were formulated in 20% of Captisol® (a sulfobutyl ether of β-cyclodextrin) in water or 20% hydroxypropyl β cyclodextrin. The Aβ42 lowering agents were administered as a single oral dose or by any acceptable route of administration to overnight fasted animals. After 4 h, the animals were sacrificed and Aβ42 levels were analysed.
(§2) Blood was collected by decapitation and exsanguinations in EDTA-treated collection tubes. Blood was centrifuged at 1900 g for 10 minutes (min) at 4° C. and the plasma recovered and flash frozen for later analysis. The brain was removed from the cranium and hindbrain. The cerebellum was removed and the left and right hemisphere were separated. The left hemisphere was stored at −18° C. for quantitative analysis of test compound levels. The right hemisphere was rinsed with phosphate-buffered saline (PBS) buffer and immediately frozen on dry ice and stored at −80° C. until homogenization for biochemical assays.
Also the central brain availability of Compounds 3, 5, 10 and A were measured:
The results are shown in Table 5 (dose 30 mg/kg oral dosing; 4 hours): […]

[2] = test system: Aβ42 and Aβtotal in the soluble fraction of brain homogenates; test: In vivo Aβ42 lowering: brain soluble Aβ42 and Aβtotal by ELISA after a single oral dose; set-up: species or system mouse; conditions: Mus musculus, po, 4 h, dose 30 mg/kg oral dosing, 4 h after dosing
Source text: To determine whether acute administration of an Aβ42 lowering agent would reduce Aβ42 levels in vivo, non-transgenic rodents, e.g. mice or rats were used. Animals treated with the Aβ42 lowering agent were examined and compared to those untreated or treated with vehicle and brain levels of soluble Aβ42 and total A13 were quantitated by standard techniques, for example, using ELISA. Treatment periods varied from hours (h) to days and were adjusted based on the results of the Aβ42 lowering once a time course of onset of effect could be established.
as §1, §2
Mouse brains from non-transgenic animals were resuspended in 8 volumes of 0.4% DEA (diethylamine)/50 mM NaCl containing protease inhibitors (Roche-11873580001 or 04693159001) per gram of tissue, e.g. for 0.158 g brain, add 1.264 ml of 0.4% DEA. All samples were homogenized in the FastPrep-24 system (MP Biomedicals) using lysing matrix D (MPBio #6913-100) at 6 m/s for 20 seconds. Homogenates were centrifuged at 221.300×g for 50 min. The resulting high speed supernatants were then transferred to fresh eppendorf tubes. Nine parts of supernatant were neutralized with 1 part 0.5 M Tris-HCl pH 6.8 and used to quantify Aβtotal and Aβ42.
To quantify the amount of Aβtotal and Aβ42 in the soluble fraction of the brain homogenates, Enzyme-Linked-Immunosorbent-Assays were used. Briefly, the standards (a dilution of synthetic Aβ1-40 and Aβ-42, Bachem) were prepared in 1.5 ml Eppendorf tube in Ultraculture, with final concentrations ranging from 10000 to 0.3 pg/ml. The samples and standards were co-incubated with HRPO-labelled N-terminal antibody for Aβ42 detection and with the biotinylated mid-domain antibody 4G8 for Aβtotal detection. 50 μl of conjugate/sample or conjugate/standards mixtures were then added to the antibody-coated plate (the capture antibodies selectively recognize the C-terminal end of Aβ42, antibody JRF/cAB42/26, for Aβ42 detection and the N-terminus of Aβ, antibody JRF/rAβ/2, for Aβtotal detection). The plate was allowed to incubate overnight at 4° C. in order to allow formation of the antibody-amyloid complex. Following this incubation and subsequent wash steps the ELISA for Aβ42 quantification was finished by addition of Quanta Blu fluorogenic peroxidase substrate according to the manufacturer's instructions (Pierce Corp., Rockford, Il). A reading was performed after 10 to 15 min (excitation 320 nm/emission 420 nm).
For Aβtotal detection, a Streptavidine-Peroxidase-Conjugate was added, followed 60 min later by an addional wash step and addition of Quanta Blu fluorogenic peroxidase substrate according to the manufacturer's instructions (Pierce Corp., Rockford, Il). A reading was performed after 10 to 15 min (excitation 320 nm/emission 420 nm). […]

[3] = Liver metabolic stability assay, human liver microsomes; format: in vitro ADME; conditions: 1 μM substrate, 1 mg/ml protein, 37° C., 15 minutes
Description: (§3) Each compound was spiked into a suspension of liver microsomes prepared from the species under investigation, at a final substrate concentration of 1 μM, and a protein concentration of 1 mg/ml, and pre-incubated at 37° C. for 11 minutes. The incubation also contains a NADPH (3-nicotinamide adenine dinucleotide phosphate, reduced) regenerating system. After this preincubation period, NADP (β-nicotinamide adenine dinucleotide phosphate) was added to the active incubations, and the incubations maintained at 37° C. for 15 minutes, during which period metabolism can take place. After 15 minutes, 2 volumes of DMSO (dimethylsulfoxide) were added to each active incubation to inactivate and precipitate proteins. Control incubations were not preincubated at 37° C., but instead were quenched by the addition of DMSO prior to the addition of NADP. Following centrifugation, the supernatant from each incubation was transferred to a separate analysis plate, and analysed for the concentration of the parent compound by LC/MS/MS using a compound-specific LC/MS/MS method and a generic HPLC gradient. The turnover of the parent compound is expressed as the % reduction in concentration in the analyte samples compared to that in the control incubations. Each incubation is performed in triplicate.

[4] = Liver metabolic stability assay, mouse liver microsomes; format: in vitro ADME; conditions: 1 μM substrate, 1 mg/ml protein, 37° C., 15 minutes
Description: as §3

[5] = untreated animals (Ctrl) set at 100, read-out: Aβ42 (% vs Ctrl) _Mean
[6] = untreated animals (Ctrl) set at 100, read-out: Aβtotal (% vs Ctrl)_Mean

concentration at 4 h ([1]; brain, read-out: Brain)	concentration at 4 h ([1]; plasma, read-out: Plasma)	melting point	turnover of the parent compound (% reduction in concentration vs control incubations), human liver microsomes [3]	turnover of the parent compound (% reduction in concentration vs control incubations), mouse liver microsomes [4]	SMILES	response vs control in vivo at 30 mg/kg [2, 5]	response vs control in vivo at 30 mg/kg [2, 6]
8510 ng/g	7740 ng/mL	–	–	–	COc1cc(Nc2nc(Oc3ccccc3Cl)n(C(C)C)n2)ccc1-n1cnc(C)n1 [Compound 3]	–	–
1630 ng/g	1630 ng/mL	166.6 °C	–	–	COc1cc(Nc2nc(Oc3cccc(C(F)(F)F)c3)n(C(C)C)n2)ccc1-n1cnc(C)n1 [Compound 5]	–	–
4640 ng/g	2700 ng/mL	247.1 °C	14%	10%	COc1cc(Nc2nc(-c3ccc(F)cc3)n(C)n2)ccc1-n1cnc(C)c1 [Compound 10]	68%	110%
–	–	186.8 °C	–	–	COc1cc(Nc2nc(-c3cccc(C(F)(F)F)c3)n(C(C)C)n2)ccc1-n1cnc(C)c1 [Compound 46]	61%	98%
–	–	167.1 °C	–	–	COc1cc(Nc2nc(Oc3ccccc3Cl)n(C(C)C)n2)ccc1-n1cnc(C)c1 [Compound 52]	45%	112%
–	–	173 °C	–	–	COc1cc(Nc2nc(N3CCCC(C(F)(F)F)C3)n(C(C)C)n2)ccc1-n1cnc(C)c1 (stereo not drawn) [Compound 54]	46%	88%
–	–	142.5 °C	–	–	Cc1cc(-c2ccc(Nc3nc(Oc4ccccc4Cl)n(C(C)C)n3)cc2)ccn1 [Compound 140]	83%	86%
0 ng/g	0 ng/mL	–	64%	22%	COc1cc(Nc2nnc(-c3ccc(F)cc3)[nH]2)ccc1-n1cnc(C)c1 [Compound A, reference compound]	101%	106%

From patent publication US9079886B2, “Substituted triazole derivatives as gamma secretase modulators” (Janssen Pharmaceuticals, Inc., priority 2010, dated 2015)
